Data as given in paper PMC3684613 (PLoS ONE, 2013).
Like-named read-outs stand apart in the source and are kept apart here.

Key:
P. falciparum 3D7 [1] = test: DAPI stain fluorescent high content imaging assay, P. falciparum 3D7 (confirmatory screen, Avery); settings: Plasmodium falciparum; for EC50: 3D7, read-out: EC50_nM; for inhibition of growth at 5 µM: 3D7, read-out: percent_inh @ 5 uM
P. falciparum 3D7 [2] = tested on: P. falciparum 3D7; set-up: method as in ChEMBL-NTD; settings: ref ChEMBL-NTD, cited from earlier work
[3] = original screening data, source (GSK, GNF, StJude), several values separated by ';' in order of sources
[4] = values follow the order of the source (GNF; GSK; StJude)

Row | Compound | EC50 (P. falciparum 3D7 [1]) [nM] | inhibition of growth at 5 µM (P. falciparum 3D7 [1]) [%] | further results
1 | CC(=O)c1ccc(NC(=O)CSc2nc(-c3ccccc3Cl)ns2)cc1 [MMV666124] | – | – | inhibition at 2.5 µM (P. falciparum 3D7 [1]; 3D7, read-out: % inh. At 2.5 uM): 88%; EC50 (P. falciparum 3D7 [2]; source GSK (TCMDC ids)): 1130 nM
2 | CCCCNCC(O)(c1ccc(Cl)cc1)c1ccc(Cl)cc1 [MMV665929] | 843 | 97 | EC50 (P. falciparum 3D7 [2]; source GNF): 720 nM
3 | COc1ccc(-c2nc3cc(Cc4ccc5[nH]c(-c6ccc(OC)cc6)nc5c4)ccc3[nH]2)cc1 [MMV007384] | 176 | 98 | EC50 (P. falciparum 3D7 [2]; source GNF (GNF-Pf id)): 234 nM
4 | O=C(NC1CCN(Cc2ccccc2)CC1)c1cc(-c2ccncc2)nc2ccc(Cl)cc12 [MMV020275] | 1020 | 92 | EC50 (P. falciparum 3D7 [2]; [3]): 920 nM
5 | Cc1[nH]c(-c2ccc(F)cc2)cc1C(=O)NC1CCN(Cc2ccccc2)CC1 [MMV019738] | 771 | 99 | EC50 (P. falciparum 3D7 [2]; source GSK): 1130 nM
6 | Cc1cc(Nc2ccc(OCc3ccccc3)cc2)nc2cc(O)ccc12 [MMV007181] | 684 | 96 | EC50 (P. falciparum 3D7 [2]; [4]): 73.6 nM
7 | COc1ccc(NC(=O)C2c3ccccc3C(=O)N(CC(C)C)C2c2cccs2)cc1 (centres unmarked) [MMV000662] | 36.7 | 100 | EC50 (P. falciparum 3D7 [2]; source StJude (SJ id)): 102 nM
8 | CC(C)OCc1cc(CN2CCN(c3cccc(Cl)c3)CC2)c(O)c2ncccc12 [MMV000788] | 697 | 98 | EC50 (P. falciparum 3D7 [2]; source StJude): 941 nM
9 | Clc1ccc2[nH]c3c(NCCCN4CCOCC4)ncnc3c2c1 [MMV006587] | 700 | – | EC50 (P. falciparum 3D7 [2]; [3]): 109 nM
10 | COc1ccc(CCn2c(=N)c(C(=O)NCc3cccnc3)cc3c(=O)n4cccc(C)c4nc32)cc1 [MMV667488] | 373 | – | EC50 (P. falciparum 3D7 [2]; [4]): 1400 nM
11 | CCc1ccc(CNCC(O)c2ccccc2)cc1 (centres unmarked) [MMV665812] | – | 97 | EC50 (P. falciparum 3D7 [2]; source StJude): 2170 nM
12 | O=C(Nc1ccc(-c2nc3cc(NC(=O)c4ccc(Cl)cc4)ccc3[nH]2)cc1)c1ccc(Cl)cc1 [MMV006962] | – | – | inhibition at 1.25 µM (P. falciparum 3D7 [1]; 3D7, read-out: % inh. At 1.25 uM): 48%; EC50 (P. falciparum 3D7 [2]; [4]): 993 nM
13 | CC(C)(C)c1ccc(C(=O)Nc2nc3ccccc3s2)cc1 [MMV142383] | – | 81 | EC50 (P. falciparum 3D7 [2]; source StJude): 15000 nM
14 | COc1ccc2c(c1)OC(O)(C(F)(F)C(F)(F)F)CC2=O (centres unmarked) [MMV007839] | 283 | – | EC50 (P. falciparum 3D7 [2]; source GNF (GNF-Pf id)): 442 nM
15 | COc1ccc(Nc2cc(C)nc(NCc3ccccc3)n2)cc1 [MMV006825] | 467 | – | EC50 (P. falciparum 3D7 [2]; [4]): 151 nM
16 | CCCCc1ccc(NS(=O)(=O)c2cc3c4c(c2)CCN4C(=O)CC3)cc1 [MMV001255] | 538 | 96 | EC50 (P. falciparum 3D7 [2]; source StJude): 15000 nM
17 | CCCCCCn1c(=N)n(CC(O)COc2cccc(C)c2)c2ccccc21 (centres unmarked) [MMV000445] | 1140 | 98 | EC50 (P. falciparum 3D7 [2]; source StJude (SJ ids)): 1970 nM
18 | CN(C)c1ccc(N=Cc2ccc(N3CCOCC3)cc2)cc1 [MMV073843] | – | 96 | EC50 (P. falciparum 3D7 [2]; [4]): 175 nM
19 | CCCc1c(CC)c(=N)c2ccccc2n1C [MMV008416] | 242 | 69 | EC50 (P. falciparum 3D7 [2]; source GNF (GNF-Pf id)): 762 nM

Row | Compound | EC50 (P. falciparum 3D7 [1]) [nM] | inhibition of growth at 5 µM (P. falciparum 3D7 [1]) [%] | further results
20 | Cc1ccc(Nc2nc(NCCO)c3ccccc3n2)cc1C [MMV001038] | 428 | – | EC50 (P. falciparum 3D7 [2]; source GNF (GNF-Pf id)): 175 nM; EC50 (P. falciparum 3D7 [2]; source StJude (SJ id)): 843 nM
21 | COc1cc(-c2nc(-c3ccccc3)c(-c3ccccc3)[nH]2)cc(OC)c1O [MMV020750] | 1180 | 97 | EC50 (P. falciparum 3D7 [2]; [4]): 774 nM
22 | c1ccc(Cn2c(N=Nc3c(Nc4ccccc4)ccc4ccccc34)nc3ccccc32)cc1 [MMV666023] | 36.8 | 96 | EC50 (P. falciparum 3D7 [2]; source GNF (GNF-Pf id)): 2730 nM
23 | Clc1cc(Br)ccc1-c1ccc(CNCC2CCNCC2)o1 [MMV019918] | 800 | 96 | EC50 (P. falciparum 3D7 [2]; [3]): 1510 nM
24 | CCOc1ccc(-n2cc(-c3ccccc3)c3c(SCc4cc(C)ccc4C)ncnc32)cc1 [MMV085471] | 1700 | 97 | EC50 (P. falciparum 3D7 [2]; source GNF (GNF-Pf ids)): 2010 nM
25 | CC(=O)Nc1nnc(SCc2c(C)cc(C(C)(C)C)cc2C)s1 [MMV020700] | 871 | 96 | EC50 (P. falciparum 3D7 [2]; [3]): 704 nM
26 | Oc1ccccc1CN1CCC2(CCCN(Cc3ccccc3F)C2)C1 (centres unmarked) [MMV666116] | 548 | 98 | EC50 (P. falciparum 3D7 [2]; [3]): 679 nM
27 | CCOc1ccc2nc(C)cc(Nc3ccc(N(C)C)cc3)c2c1 [MMV007020] | 4000 | – | inhibition of growth at 2 µM (P. falciparum 3D7 [1]; 3D7, read-out: percent_inh @ 2 uM): 94%; EC50 (P. falciparum 3D7 [2]; [4]): 344 nM
28 | O=C(NC1CCCCC1)C(c1cccs1)N(CCc1ccccc1)C(=O)c1ccco1 (centres unmarked) [MMV666106] | 1070 | 90 | EC50 (P. falciparum 3D7 [2]; source GSK (TCMDC ids)): 1040 nM
29 | Cc1ccc(Cn2c(N3CCC(C(=O)NCc4cccs4)CC3)nc3ccccc32)cc1 [MMV007564] | 947 | 73 | EC50 (P. falciparum 3D7 [2]; source GNF): 529 nM; EC50 (P. falciparum 3D7 [2]; source GSK): 748 nM
30 | CCOC(=O)C1CCN(C(=O)CN2C(=O)c3ccccc3C2c2c[nH]c3ccccc23)CC1 (centres unmarked) [MMV011576] | 1180 | 98 | EC50 (P. falciparum 3D7 [2]; [3]): 519 nM
31 | COc1ccc(C(=O)C2CC2c2ccc(Cl)cc2)cc1 (centres unmarked) [MMV665924] | 1060 | 94 | EC50 (P. falciparum 3D7 [2]; source GNF (GNF-Pf ids)): 217 nM
32 | Cc1cccc(N2C(=O)C3C(C2=O)C2(c4ccccc4)C(=O)C3(c3ccccc3)C(c3ccc4c(c3)OCO4)=C2c2ccc3c(c2)OCO3)c1 (centres unmarked) [MMV007228] | 304 | 94 | EC50 (P. falciparum 3D7 [2]; [4]): 1070 nM
33 | CCOc1ccc(-c2nc(NC(=O)c3cccc(S(C)(=O)=O)c3)sc2C)cc1 [MMV665913] | – | 95 | EC50 (P. falciparum 3D7 [2]; source StJude): 15000 nM
34 | O=C(Nc1ccc(C23CC4CC(CC(c5ccccc5)(C4)C2)C3)cc1)c1cccs1 [MMV007574] | 826 | 96 | EC50 (P. falciparum 3D7 [2]; source GNF (GNF-Pf ids)): 645 nM
35 | COc1ccc(NC(=O)C2c3ccccc3C(=O)N(CC(C)C)C2c2cccs2)cc1Cl (centres unmarked) [MMV000642] | 20.2 | 100 | EC50 (P. falciparum 3D7 [2]; source GNF (GNF-Pf id)): 91.4 nM; EC50 (P. falciparum 3D7 [2]; source StJude (SJ id)): 119 nM
36 | Oc1ccccc1CNCC12CC3CC(CC(C3)C1)C2 [MMV020788] | 22.6 | 96 | EC50 (P. falciparum 3D7 [2]; source GSK (TCMDC id)): 279 nM
37 | CCN1CCN(Cc2ccc(NC(=O)c3cc4ccc5cccnc5c4[nH]3)cc2)CC1 [MMV020548] | 361 | 70 | EC50 (P. falciparum 3D7 [2]; source GSK (TCMDC id)): 848 nM
38 | CCOc1c(Br)cc(C2C(C(=O)OC)=CN(C)C=C2C(=O)OC)cc1OC [MMV006764] | 512 | 96 | EC50 (P. falciparum 3D7 [2]; source GNF (GNF-Pf ids)): 292 nM

Row | Compound | EC50 (P. falciparum 3D7 [1]) [nM] | inhibition of growth at 5 µM (P. falciparum 3D7 [1]) [%] | further results
39 | Oc1c2c(nc3cc(-c4ccccc4)nn13)CCCC2 [MMV008270] | – | 77 | EC50 (P. falciparum 3D7 [2]; [3]): 1930 nM
40 | COc1cc(CNCCc2ccc(Cl)cc2)cc(OC)c1O [MMV128432] | 1790 | 97 | EC50 (P. falciparum 3D7 [2]; [4]): 6890 nM
41 | COc1cc(OC)cc(N2C(=O)N(Cc3ccc(C(C)(C)C)cc3)c3ccccc3S2(=O)=O)c1 [MMV008173] | 1430 | 97 | EC50 (P. falciparum 3D7 [2]; source GNF (GNF-Pf ids)): 3750 nM
42 | Cc1ccc(-c2cc3nc4c(c(O)n3n2)CCCC4)cc1 [MMV006937] | 396 | 73 | EC50 (P. falciparum 3D7 [2]; source GNF (GNF-Pf id)): 1600 nM
43 | CC(C)(C)c1ccc(O)c(CNC2CCCCC2)c1 [MMV665785] | 161 | 96 | EC50 (P. falciparum 3D7 [2]; source GNF (GNF-Pf id)): 250 nM; EC50 (P. falciparum 3D7 [2]; source GSK (TCMDC id)): 264 nM
44 | Cc1ccc(-c2cc(C(=O)Nc3ccc(S(=O)(=O)N4CCCCC4)cc3)[nH]n2)c(O)c1 [MMV665906] | 535 | 94 | EC50 (P. falciparum 3D7 [2]; source GSK): 1770 nM
45 | Cn1c(=O)c2cc(C(=O)NCCCN3CCCCCC3)sc2c2ccccc21 [MMV019313] | 669 | 97 | EC50 (P. falciparum 3D7 [2]; source GSK): 689 nM
46 | CN1CCN(c2ccc(Nc3c4ccccc4nc4ccccc34)cc2)CC1 [MMV006172] | 142 | 97 | EC50 (P. falciparum 3D7 [2]; source GNF (GNF-Pf id)): 56.7 nM; EC50 (P. falciparum 3D7 [2]; source GSK (TCMDC id)): 645 nM
47 | Cc1ccc(-c2nc3ccccc3o2)cc1NCc1cc(Cc2ccccc2)ccc1O [MMV020912] | – | 64 | EC50 (P. falciparum 3D7 [2]; [4]): 1030 nM
48 | COc1ccc(C(=O)C(CCC(CNC(C)(C)C)C(=O)c2ccc(OC)cc2)CNC(C)(C)C)cc1 (centres unmarked) [MMV007591] | – | 85 | EC50 (P. falciparum 3D7 [2]; [4]): 1120 nM
49 | COc1ccc(CNC(=O)c2cc3c(=O)n4ccccc4nc3n(CCc3ccccc3)c2=N)cc1 [MMV665881] | 1060 | 95 | EC50 (P. falciparum 3D7 [2]; [4]): 330 nM
50 | CN(C)c1ccc(C=Cc2nc(=O)c3ccccc3o2)cc1 [MMV006309] | 51.5 | 96 | EC50 (P. falciparum 3D7 [2]; source GSK (TCMDC id)): 44.6 nM
51 | CCOc1ccc(CCNC(=O)c2cccs2)cc1OCC [MMV007978] | – | 95 | EC50 (P. falciparum 3D7 [2]; [3]): 890 nM
52 | CCN1CCN(c2c(C(=O)c3ccccc3)cnc3cc(OC)c(OC)cc23)CC1 [MMV008474] | – | 59 | EC50 (P. falciparum 3D7 [2]; source GNF (GNF-Pf ids)): 3020 nM
53 | CC(NCc1ccccc1)c1cc(Cl)ccc1O (centres unmarked) [MMV665789] | 603 | 95 | EC50 (P. falciparum 3D7 [2]; source GNF): 592 nM
54 | CCCc1c(C)nc2ccc(Br)cc2c1O [MMV666095] | 1190 | 64 | EC50 (P. falciparum 3D7 [2]; source GNF (GNF-Pf ids)): 1510 nM
55 | O=C(Nc1ccc(N2CCN(Cc3ccccc3)CC2)cc1)c1cccs1 [MMV019670] | 1080 | 59 | EC50 (P. falciparum 3D7 [2]; [3]): 769 nM
56 | CCCCN(CCCC)S(=O)(=O)c1ccc(NC(=O)c2ccco2)cc1 [MMV007881] | – | 78 | EC50 (P. falciparum 3D7 [2]; [3]): 1420 nM
57 | O=C(Nc1ccccc1O)c1ccc(Oc2cccc(C(=O)Nc3ccccc3O)c2)cc1 [MMV665888] | – | 91 | EC50 (P. falciparum 3D7 [2]; source GSK): 799 nM
